Reference: US5789448A, “Benzoylethylene derivative” (Mitsubishi Chemical Corporation, priority 1994, dated 1998)
Where two headings read alike, the source gives them in different places.

Key:
[1] = target: T1, human EGF (epithelial cell growth factor) receptor tyrosine kinase (Homo sapiens, UniProt P00533); assay: Tyrosine kinase inhibiting activity (EGF receptor partially purified from A431 cell membrane fraction, RR-SRC peptide substrate, gamma-32P-ATP); format: biochemical; details: 10 μM ATP, 1% DMSO, in ice for 30 minutes
T1 construct: to obtain an A431 cell membrane fraction, and this fraction was provided for measurement as a partially purified EGF receptor; endogenous in cells; host or cells: A431 (human squamous cell carcinoma), membrane fraction
T1 sequence (P00533 25-1210): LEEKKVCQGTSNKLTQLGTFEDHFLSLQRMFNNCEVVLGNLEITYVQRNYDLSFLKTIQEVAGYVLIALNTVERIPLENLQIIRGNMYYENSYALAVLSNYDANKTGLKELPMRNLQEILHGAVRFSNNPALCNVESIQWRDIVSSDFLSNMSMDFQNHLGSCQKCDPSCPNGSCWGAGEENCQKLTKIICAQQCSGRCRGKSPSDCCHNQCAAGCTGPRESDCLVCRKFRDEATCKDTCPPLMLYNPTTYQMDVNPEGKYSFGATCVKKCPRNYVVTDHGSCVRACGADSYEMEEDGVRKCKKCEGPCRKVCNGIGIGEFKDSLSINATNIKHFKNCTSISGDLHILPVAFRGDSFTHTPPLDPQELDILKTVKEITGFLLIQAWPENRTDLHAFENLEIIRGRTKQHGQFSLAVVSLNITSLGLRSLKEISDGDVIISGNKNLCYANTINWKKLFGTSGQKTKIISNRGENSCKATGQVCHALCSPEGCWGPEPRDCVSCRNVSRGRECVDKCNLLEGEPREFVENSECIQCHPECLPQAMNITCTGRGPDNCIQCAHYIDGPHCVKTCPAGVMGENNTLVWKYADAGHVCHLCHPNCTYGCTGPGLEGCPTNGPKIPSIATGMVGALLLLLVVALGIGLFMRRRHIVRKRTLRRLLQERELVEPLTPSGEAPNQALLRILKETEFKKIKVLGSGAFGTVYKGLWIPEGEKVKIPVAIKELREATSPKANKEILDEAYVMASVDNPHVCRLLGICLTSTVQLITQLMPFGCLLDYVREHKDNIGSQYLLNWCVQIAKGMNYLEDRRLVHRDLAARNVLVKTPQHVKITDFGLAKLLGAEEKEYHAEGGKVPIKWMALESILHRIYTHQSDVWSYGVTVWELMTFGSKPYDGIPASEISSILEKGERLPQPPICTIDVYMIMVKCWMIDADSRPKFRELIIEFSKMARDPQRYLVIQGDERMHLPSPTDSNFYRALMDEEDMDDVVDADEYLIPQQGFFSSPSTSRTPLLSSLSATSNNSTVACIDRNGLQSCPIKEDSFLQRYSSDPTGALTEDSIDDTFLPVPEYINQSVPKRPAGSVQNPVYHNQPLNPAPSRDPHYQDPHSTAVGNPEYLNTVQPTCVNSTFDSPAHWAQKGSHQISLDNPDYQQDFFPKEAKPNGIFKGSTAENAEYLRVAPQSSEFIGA
Description: (§1) In order to evaluate the tyrosine kinase inhibiting activity and the cancer cell growth inhibiting activity of the compound of the present invention, tests were carried out in a partially purified human EGF ([…]) receptor tyrosine kinase activity measuring system and a cell culture system using human cancerous cells.
(Tyrosine kinase inhibiting activity)
The tyrosine kinase inhibiting activity was measured by using an EGF receptor which was partially purified from an A431 cell line derived from human squamous cell carcinoma and by improving the tyrosine kinase activity measurement method described in Linda J. Pike et al., Proceedings of the National Academy of Sciences of the U.S.A. 79, 1443 (1982).
The detailed method is as described below.
A431 cells were cultured in a Dulbecco modified Eagle's medium (DMEM) containing 10% fetal calf serum (FCS), at 37° C. under 5% carbonic acid gas. The cells were homogenized in a solution containing 10 mM N-2-hydroxyethylpiperazino-N'-2-ethanesulfonic acid (Hepes) buffer (pH 7.4), 0.25M saccharose and 0.1 mM EDTA and then centrifuged at 3000 g for 5 minutes. Further, a supernatant thereof was centrifuged at 10000× g for 30 minutes to obtain an A431 cell membrane fraction, and this fraction was provided for measurement as a partially purified EGF receptor which was an enzyme source.
To a reaction mixture of the above-mentioned A431 cell membrane fraction (10 to 15 μg), a 30 mM Hepes buffer (pH 7.7), 2 mM MnCl2, 50 μM Na3 VO4 and a sample dissolved in dimethylsulfoxide (DMSO) (final concentration: 1% DMSO) was added 100 ng of EGF, and then 75 μg of a synthetic substrate RR-SRC peptide (a peptide described in Sequence No. 1) and 10 μM gamma-^32 P-adenosine triphosphoric acid (37 to 42 KBq) were added thereto to start a reaction.
The volume at that time was 60 μl.
The reaction was carried out in ice for 30 minutes, and the reaction was terminated by adding 6 μl of 10 mg/ml bovine serum albumin and 25 μl of 20% trichloroacetic acid. The reaction mixture was left to stand in ice for 30 minutes.
Next, after the mixture was centrifuged at 5000× g for 2 minutes, 40 μl of the supernatant was sampled and adsorbed to P81 phosphocellulose paper.
This was dipped in a 30% acetic acid solution for 15 minutes to fix, washed by dipping in a 15% acetic acid solution for 15 minutes (washing was repeated four times) and measured the count of ^32 P attached to P81 phosphocellulose paper by a liquid scintillation counter, and this value was defined as A.
At the same time, the counts of a reaction in which the sample tested was not added and a reaction in which both the sample and EGF were not added were measured and were defined as B and C, respectively.
The tyrosine kinase inhibiting rate is determined by the following formula.
Inhibiting rate (%)=100-{(B-A)/(B-C)}×100
From the inhibiting rate obtained by changing the addition concentration of the sample, an IC50 value (50% inhibiting concentration) was calculated.

[2] = system: KB cells of human rhinopharyngeal cancer; assay: Cancer cell growth inhibiting activity (KB cells, MTT); format: cell-based; details: read-out: Cancer cell growth inhibiting activity (IC50)
Description: as §1
(Cancer cell growth inhibiting activity)
KB cells of human rhinopharyngeal cancer retain EGF receptor on cellular surfaces thereof excessively.
By using these KB cells, investigation of the effect of a sample on growth of cultured cancer cells was carried out by the following method.
2.5×10^3 cells/well of KB cells were sowed on a 96 well dish and cultured in a DMEM:F12 (1:1) medium containing 10% FCS, 50 U/ml penicillin and 50 μg/ml of streptomycin, under conditions of 37° C. and 5% carbonic acid gas for 1 day. Thereafter, a sample dissolved in DMSO was added to the medium (DMSO final concentration: <0.1%) and cultured under the above conditions for 3 days. The sample and the medium were replaced every 24 hours.
The count of the number of living cells was determined by calorimetric quantitation at two wavelengths of 540 nm and 660 nm using a MTT reagent by referring to the measurement method described in Michael C.
At the same time, the count of the number of living cells when the sample was not added was also measured, and the value was defined as b.
The cell growth inhibiting rate was determined by the following formula.
Inhibiting rate (%)=(b-a)/b×100

[3] = KB cells, 3 days, sample and medium replaced every 24 hours, MTT

Row | Compound | IC50 [1] [nM] | IC50 ([2]; KB) [nM] | IC50 [2, 3] [nM]
1 | COc1ccc(C(=O)C=C(CN(C(C)C)C(C)C)S(=O)(=O)c2ccccc2)cc1OC [compound 335] | 27900 | 3100 | –
2 | CC(C(=O)Nc1ccccc1)=C(C)C(=O)c1ccccc1 [compound 253] | 38000 | 420 | –
3 | COC(=O)C=CC(=O)c1ccc(OC)cc1 [compound 29] | 9400 | 3900 | –
4 | COc1ccc(C(=O)C=CCN2CCCCC2)cc1OC [compound 97] | 8200 | 2600 | –
5 | CCN(CC)C(C)(C)C(C#N)=CC(=O)c1ccc(OC)c(OC)c1 [compound 349] | 5800 | – | 2000
6 | COc1ccc(C(=O)C=C(C(C)(C)N2CCC(C)CC2)S(=O)(=O)c2ccccc2)cc1OC [compound 327] | 27300 | – | 5000
7 | CCN(CC)C(C)(C)C(=CC(=O)c1ccc(OC)c(OC)c1)S(=O)(=O)c1cccs1 [compound 352] | 470 | 630 | –
8 | CCN(CC)C(C)(C)C(=CC(=O)c1ccc(OC)c(OC)c1)S(=O)(=O)c1ccc(C)cc1 [compound 293] | 1100 | 230 | –
9 | COc1ccc(C(=O)C=CC#N)cc1OC [compound 5] | 340 | 620 | –
10 | CCN(CC)C(C)(C)C(=CC(=O)c1ccc(OC)c(OC)c1)S(=O)(=O)c1ccc([N+](=O)[O-])cc1 [compound 350] | 1400 | 570 | –
11 | COC(=O)C=CC(=O)c1ccc(OC)c(OC)c1 [compound 26] | 860 | 1900 | –
12 | CCN(CC)C(C)(C)C(=CC(=O)c1ccc(OC)c(OC)c1)S(=O)(=O)c1ccccc1 [compound 278] | 1700 | 950 | –
13 | COc1cc(C(=O)C=C(C(C)(C)N2CCCCC2)S(=O)(=O)c2ccccc2)cc2c1OCO2 [compound 290] | 5000 | 830 | –
